Measured values as given in the NIST ThermoML archive (doi:10.1016/j.fluid.2019.112263).

Key:
[1] = 101.33 kPa, Liquid, transient hot wire
[2] = wn = mass fraction of the nth substance listed; details: 100 kPa, Liquid, transient hot wire

CCO [ethanol]
[1]
Details	thermal conductivity [W/m/K]
276.51 K	0.1719
287.55 K	0.1677
297.25 K	0.1645
307.16 K	0.1617

CCCCCCCCCC(=O)OC [methyl decanoate] + CCCCCO
[2]
Details	thermal conductivity [W/m/K]
287.96 K, w1 = 0.1941	0.1495
287.96 K, w1 = 0.4008	0.1482
287.97 K, w1 = 0.6035	0.1467
288 K, w1 = 0.8002	0.1456
297.72 K, w1 = 0.1941	0.1477
297.73 K, w1 = 0.4008	0.1463
297.76 K, w1 = 0.6035	0.1453
297.85 K, w1 = 0.8002	0.1433
307.69 K, w1 = 0.8002	0.1414
307.72 K, w1 = 0.6035	0.1432
307.74 K, w1 = 0.4008	0.144
307.77 K, w1 = 0.1941	0.1451
317.73 K, w1 = 0.4008	0.142
317.74 K, w1 = 0.8002	0.1396
317.81 K, w1 = 0.6035	0.1406
317.86 K, w1 = 0.1941	0.1433
327.58 K, w1 = 0.4008	0.1405
327.66 K, w1 = 0.6035	0.1386
327.75 K, w1 = 0.8002	0.1366
327.82 K, w1 = 0.1941	0.1408
337.54 K, w1 = 0.8002	0.1347
337.6 K, w1 = 0.1941	0.1391
337.61 K, w1 = 0.6035	0.1361
337.76 K, w1 = 0.4008	0.1373
347.58 K, w1 = 0.4008	0.1356
347.61 K, w1 = 0.8002	0.1315
347.79 K, w1 = 0.1941	0.1367
347.85 K, w1 = 0.6035	0.1336
357.66 K, w1 = 0.4008	0.1333
357.7 K, w1 = 0.6035	0.132
357.75 K, w1 = 0.8002	0.1299
357.76 K, w1 = 0.1941	0.1345

CCCCCCCCCC(=O)OC [methyl decanoate] + CCCCO
[2]
Details	thermal conductivity [W/m/K]
287.9 K, w1 = 0.2001	0.1497
287.95 K, w1 = 0.8003	0.146
287.98 K, w1 = 0.599	0.1468
288.35 K, w1 = 0.4002	0.1476
297.66 K, w1 = 0.4002	0.1458
297.69 K, w1 = 0.2001	0.1473
297.81 K, w1 = 0.8003	0.1436
298 K, w1 = 0.599	0.1441
307.7 K, w1 = 0.2001	0.145
307.74 K, w1 = 0.4002	0.1436
307.81 K, w1 = 0.599	0.1427
307.86 K, w1 = 0.8003	0.1412
317.55 K, w1 = 0.2001	0.1431
317.7 K, w1 = 0.8003	0.1395
317.74 K, w1 = 0.4002	0.1418
317.81 K, w1 = 0.599	0.1403
327.62 K, w1 = 0.2001	0.1398
327.73 K, w1 = 0.4002	0.1388
327.78 K, w1 = 0.599	0.1382
327.78 K, w1 = 0.8003	0.137
337.59 K, w1 = 0.2001	0.1379
337.59 K, w1 = 0.4002	0.1372
337.66 K, w1 = 0.599	0.136
337.78 K, w1 = 0.8003	0.1346
347.49 K, w1 = 0.2001	0.1363
347.58 K, w1 = 0.599	0.1339
347.73 K, w1 = 0.4002	0.135
347.8 K, w1 = 0.8003	0.1318
357.56 K, w1 = 0.2001	0.1337
357.68 K, w1 = 0.4002	0.1325
357.71 K, w1 = 0.599	0.1317
357.76 K, w1 = 0.8003	0.13

CCCCCCCCCC(=O)OC [methyl decanoate] + CCCO
[2]
Details	thermal conductivity [W/m/K]
287.88 K, w1 = 0.2022	0.1527
287.9 K, w1 = 0.4008	0.1495
287.9 K, w1 = 0.5998	0.1481
287.98 K, w1 = 0.7993	0.1462
297.73 K, w1 = 0.2022	0.1501
297.73 K, w1 = 0.7993	0.1442
297.77 K, w1 = 0.4008	0.1473
297.95 K, w1 = 0.5998	0.1454
307.71 K, w1 = 0.2022	0.1479
307.75 K, w1 = 0.4008	0.1453
307.77 K, w1 = 0.7993	0.142
307.81 K, w1 = 0.5998	0.1435
317.64 K, w1 = 0.2022	0.1459
317.69 K, w1 = 0.4008	0.1426
317.74 K, w1 = 0.7993	0.1397
317.81 K, w1 = 0.5998	0.1414
327.55 K, w1 = 0.2022	0.1433
327.56 K, w1 = 0.5998	0.1394
327.59 K, w1 = 0.4008	0.1408
327.67 K, w1 = 0.7993	0.1374
337.58 K, w1 = 0.2022	0.1412
337.62 K, w1 = 0.5998	0.1371
337.68 K, w1 = 0.7993	0.1351
337.72 K, w1 = 0.4008	0.138
347.56 K, w1 = 0.2022	0.1382
347.64 K, w1 = 0.4008	0.136
347.65 K, w1 = 0.5998	0.1348
347.65 K, w1 = 0.7993	0.1328
357.48 K, w1 = 0.2022	0.1362
357.48 K, w1 = 0.7993	0.1299
357.51 K, w1 = 0.5998	0.1328
357.57 K, w1 = 0.4008	0.1341

O [water]
[1]
Details	thermal conductivity [W/m/K]
299.55 K	0.613
309.44 K	0.6207
319.56 K	0.6399
339.38 K	0.653
349.82 K	0.6704
